Measurements published in US11345694B2, “Antibacterial compounds” (DISCUVA LTD., priority 2017, dated 2022).
In brackets after ≈: the same amount, converted by molar mass.

Legend:
[1] = tested on: Klebsiella pneumoniae ATCC 51504 (KP4); test: MIC broth microdilution; type: cell-based; conditions: ATCC51504
Method in brief: (§1)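 Following CLSI standards, susceptibility is measured in cation-adjusted Müller-Hinton broth at 37° C without added CO2 for 20-24 hours. Test concentrations run 0.39-200 μM final in doubling steps, DMSO capped at 2%. MIC: lowest concentration without bacterial growth.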

[2] = tested on: Escherichia coli K12 (EC); test: MIC broth microdilution; type: cell-based
Method in brief: as §1

[3] = tested on: Staphylococcus aureus ATCC 35556 (SA); test: MIC broth microdilution; type: cell-based; conditions: ATCC35556
Method in brief: as §1

[4] = tested on: Pseudomonas aeruginosa ATCC 33359 (PA); test: MIC broth microdilution; type: cell-based; conditions: ATCC33359
Method in brief: as §1

[5] = tested on: Acinetobacter baumannii ATCC 17978 (AB); test: MIC broth microdilution; type: cell-based; conditions: ATCC17978
Method in brief: as §1

[6] = tested on: Klebsiella pneumoniae ATCC 10031 (KP2); test: MIC broth microdilution; type: cell-based; conditions: ATCC10031
Method in brief: (§2)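 Planktonic MIC determination: compound tested two-fold from 200 down to 0.39 μM final with DMSO capped at 2% final, cation-adjusted Müller-Hinton broth, 37° C for 20-24 hours. Endpoint is the lowest concentration inhibiting growth.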

[7] = tested on: E. coli NCTC 13441 (UPEC); test: MIC broth microdilution; type: cell-based, Escherichia coli; conditions: Escherichia coli, NCTC13441
Method in brief: as §1

[8] = tested on: K. pneumoniae H151440671 (KP10); test: MIC broth microdilution; type: cell-based, Klebsiella pneumoniae; conditions: Klebsiella pneumoniae
Method in brief: as §2

[9] = tested on: K. pneumoniae ATCC 700603 (KP3); test: MIC broth microdilution; type: cell-based, Klebsiella pneumoniae; conditions: Klebsiella pneumoniae, ATCC700603
Method in brief: as §2

[10] = tested on: K. pneumoniae NCTC 13438 (KP1); test: MIC broth microdilution; type: cell-based, Klebsiella pneumoniae; conditions: Klebsiella pneumoniae, NCTC13438
Method in brief: as §2

[11] = tested on: K. pneumoniae H154600588 (KP8); test: MIC broth microdilution; type: cell-based, Klebsiella pneumoniae; conditions: Klebsiella pneumoniae
Method in brief: as §2

[12] = tested on: K. pneumoniae H154300688 (KP9); test: MIC broth microdilution; type: cell-based, Klebsiella pneumoniae; conditions: Klebsiella pneumoniae
Method in brief: as §2

[13] = tested on: K. pneumoniae H154020667 (KP6); test: MIC broth microdilution; type: cell-based, Klebsiella pneumoniae; conditions: Klebsiella pneumoniae
Method in brief: as §2

[14] = tested on: K. pneumoniae H154680676 (KP5); test: MIC broth microdilution; type: cell-based, Klebsiella pneumoniae; conditions: Klebsiella pneumoniae
Method in brief: as §2

[15] = tested on: K. pneumoniae H154640784 (KP7); test: MIC broth microdilution; type: cell-based, Klebsiella pneumoniae; conditions: Klebsiella pneumoniae
Method in brief: as §2

[16] = tested on: human hepatocarcinoma cell line ATCC HB-8065 (HepG2); test: Human cell viability (CellTiter-Glo); type: cell-based; conditions: Homo sapiens; HepG2 cells, 24 h incubation, CellTiter-Glo luminescence, 0.2-100 μM; read-out: IC50 values against the HepG2 cell line
Method in brief: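 Cytotoxicity was read as CellTiter-Glo luminescence after 24 h compound exposure at 37° C., 5% CO2. Final concentrations spanned 0.2-100 μM in two-fold steps, in 1% FBS MEM with 1% DMSO, on cells plated a day earlier at 20,000/well. IC50 came from 4-parameter logistic regression.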

Row | MIC [1] | MIC [2] | MIC [3] | MIC [4] | MIC [5] | MIC [6] | MIC [7] | MIC [8] | MIC [9] | MIC [10] | MIC [11] | MIC [12] | MIC [13] | MIC [14] | MIC [15] | IC50 [16] | Structure (SMILES)
1 | 1 to 10 µM (≈ 0.385 to 3.85 µg/mL) | 1 to 10 µM (≈ 0.385 to 3.85 µg/mL) | > 100 µM | > 100 µM | > 100 µM | ≤ 1 µM | 1 to 10 µM (≈ 0.385 to 3.85 µg/mL) | 1 to 10 µM (≈ 0.385 to 3.85 µg/mL) | 1 to 10 µM (≈ 0.385 to 3.85 µg/mL) | 10 to 100 µM (≈ 3.85 to 38.5 µg/mL) | 1 to 10 µM (≈ 0.385 to 3.85 µg/mL) | 1 to 10 µM (≈ 0.385 to 3.85 µg/mL) | 1 to 10 µM (≈ 0.385 to 3.85 µg/mL) | 1 to 10 µM (≈ 0.385 to 3.85 µg/mL) | 1 to 10 µM (≈ 0.385 to 3.85 µg/mL) | > 100 µM | Cc1cc(-c2[nH]c(N)nc2-c2ccc3c(c2)N(S(C)(=O)=O)CCO3)ccn1 [Example 55, 5-(2-Methylpyridin-4-yl)-4-(4-(methylsulfonyl)-3,4-dihydro-2H-benzo[b][1,4]oxazin-6-yl)-1H-imidazol-2-amine]
2 | 1 to 10 µM (≈ 0.305 to 3.05 µg/mL) | 1 to 10 µM (≈ 0.305 to 3.05 µg/mL) | > 100 µM | > 100 µM | > 100 µM | ≤ 1 µM | ≤ 1 µM | 1 to 10 µM (≈ 0.305 to 3.05 µg/mL) | 10 to 100 µM (≈ 3.05 to 30.5 µg/mL) | 10 to 100 µM (≈ 3.05 to 30.5 µg/mL) | 10 to 100 µM (≈ 3.05 to 30.5 µg/mL) | 1 to 10 µM (≈ 0.305 to 3.05 µg/mL) | 1 to 10 µM (≈ 0.305 to 3.05 µg/mL) | 1 to 10 µM (≈ 0.305 to 3.05 µg/mL) | 10 to 100 µM (≈ 3.05 to 30.5 µg/mL) | > 100 µM | Cc1cc(-c2[nH]c(N)nc2-c2ccc3c(c2)NCCC3)ccn1 [Example 58, 5-(2-Methylpyridin-4-yl)-4-(1,2,3,4-tetrahydroquinolin-7-yl)-1H-imidazol-2-amine]
3 | 1 to 10 µM (≈ 0.364 to 3.64 µg/mL) | 1 to 10 µM (≈ 0.364 to 3.64 µg/mL) | > 100 µM | > 100 µM | > 100 µM | ≤ 1 µM | ≤ 1 µM | 1 to 10 µM (≈ 0.364 to 3.64 µg/mL) | 1 to 10 µM (≈ 0.364 to 3.64 µg/mL) | 1 to 10 µM (≈ 0.364 to 3.64 µg/mL) | 10 to 100 µM (≈ 3.64 to 36.4 µg/mL) | 1 to 10 µM (≈ 0.364 to 3.64 µg/mL) | 1 to 10 µM (≈ 0.364 to 3.64 µg/mL) | 1 to 10 µM (≈ 0.364 to 3.64 µg/mL) | 1 to 10 µM (≈ 0.364 to 3.64 µg/mL) | > 100 µM | Cc1cc(-c2[nH]c(N)nc2-c2ccc3c(c2)N(C(=O)CN)CCO3)ccn1 [Example 62, 2-Amino-1-(6-(2-amino-5-(2-methylpyridin-4-yl)-1H-imidazol-4-yl)-2,3-dihydro-4H-benzo[b][1,4]oxazin-4-yl)ethan-1-one]
4 | 1 to 10 µM (≈ 0.365 to 3.65 µg/mL) | 1 to 10 µM (≈ 0.365 to 3.65 µg/mL) | > 100 µM | > 100 µM | > 100 µM | ≤ 1 µM | ≤ 1 µM | 1 to 10 µM (≈ 0.365 to 3.65 µg/mL) | 1 to 10 µM (≈ 0.365 to 3.65 µg/mL) | 1 to 10 µM (≈ 0.365 to 3.65 µg/mL) | 1 to 10 µM (≈ 0.365 to 3.65 µg/mL) | 1 to 10 µM (≈ 0.365 to 3.65 µg/mL) | 1 to 10 µM (≈ 0.365 to 3.65 µg/mL) | 1 to 10 µM (≈ 0.365 to 3.65 µg/mL) | 1 to 10 µM (≈ 0.365 to 3.65 µg/mL) | > 100 µM | COCCN1CCOc2ccc(-c3nc(N)[nH]c3-c3ccnc(C)c3)cc21 [Example 64, 4-(4-(2-Methoxyethyl)-3,4-dihydro-2H-benzo[b][1,4]oxazin-6-yl)-5-(2-methylpyridin-4-yl)-1H-imidazol-2-amine]
5 | 1 to 10 µM (≈ 0.361 to 3.61 µg/mL) | ≤ 1 µM | > 100 µM | > 100 µM | > 100 µM | ≤ 1 µM | 1 to 10 µM (≈ 0.361 to 3.61 µg/mL) | 1 to 10 µM (≈ 0.361 to 3.61 µg/mL) | 1 to 10 µM (≈ 0.361 to 3.61 µg/mL) | 1 to 10 µM (≈ 0.361 to 3.61 µg/mL) | 1 to 10 µM (≈ 0.361 to 3.61 µg/mL) | 1 to 10 µM (≈ 0.361 to 3.61 µg/mL) | ≤ 1 µM | ≤ 1 µM | 1 to 10 µM (≈ 0.361 to 3.61 µg/mL) | 25 to 100 µM | Cc1cc(-c2[nH]c(N)nc2-c2ccc3c(c2)N(CC2CC2)CCO3)ccn1 [Example 92, 4-(4-(Cyclopropyl-methyl)-3,4-dihydro-2H-benzo[b][1,4]oxazin-6-yl)-5-(2-methylpyridin-4-yl)-1H-imidazol-2-amine]

The next lines start with the compound.

Row | Structure (SMILES) | MIC [1] | MIC [2] | MIC [3] | MIC [4] | MIC [5] | MIC [6] | MIC [7] | MIC [8] | MIC [9] | MIC [10] | MIC [11] | MIC [12] | MIC [13] | MIC [14] | MIC [15] | IC50 [16]
6 | Cc1cc(-c2[nH]c(N)nc2-c2cc3c(cc2F)OCCN3)ccn1 [Example 52, 4-(7-Fluoro-3,4-dihydro-2H-benzo[b][1,4]oxazin-6-yl)-5-(2-methylpyridin-4-yl)-1H-imidazol-2-amine] | ≤ 1 µM | ≤ 1 µM | > 100 µM | > 100 µM | > 100 µM | ≤ 1 µM | ≤ 1 µM | ≤ 1 µM | 1 to 10 µM (≈ 0.325 to 3.25 µg/mL) | 1 to 10 µM (≈ 0.325 to 3.25 µg/mL) | 1 to 10 µM (≈ 0.325 to 3.25 µg/mL) | 1 to 10 µM (≈ 0.325 to 3.25 µg/mL) | ≤ 1 µM | ≤ 1 µM | 1 to 10 µM (≈ 0.325 to 3.25 µg/mL) | > 100 µM
7 | Cc1cc(-c2[nH]c(N)nc2-c2cc(F)c3c(c2)OCCO3)ccn1 [Example 56, 4-(8-fluoro-2,3-dihydrobenzo[b][1,4]dioxin-6-yl)-5-(2-methylpyridin-4-yl)-1H-imidazol-2-amine] | ≤ 1 µM | 1 to 10 µM (≈ 0.326 to 3.26 µg/mL) | > 100 µM | > 100 µM | > 100 µM | ≤ 1 µM | 1 to 10 µM (≈ 0.326 to 3.26 µg/mL) | ≤ 1 µM | 1 to 10 µM (≈ 0.326 to 3.26 µg/mL) | 1 to 10 µM (≈ 0.326 to 3.26 µg/mL) | 1 to 10 µM (≈ 0.326 to 3.26 µg/mL) | 1 to 10 µM (≈ 0.326 to 3.26 µg/mL) | ≤ 1 µM | ≤ 1 µM | 1 to 10 µM (≈ 0.326 to 3.26 µg/mL) | > 100 µM
8 | CCN1CCOc2ccc(-c3nc(N)[nH]c3-c3ccnc(C)c3)cc21 [Example 57, 4-(4-Ethyl-3,4-dihydro-2H-benzo[b][1,4]oxazin-6-yl)-5-(2-methylpyridin-4-yl)-1H-imidazol-2-amine] | ≤ 1 µM | ≤ 1 µM | > 100 µM | > 100 µM | > 100 µM | ≤ 1 µM | 1 to 10 µM (≈ 0.335 to 3.35 µg/mL) | ≤ 1 µM | 1 to 10 µM (≈ 0.335 to 3.35 µg/mL) | 1 to 10 µM (≈ 0.335 to 3.35 µg/mL) | 1 to 10 µM (≈ 0.335 to 3.35 µg/mL) | 1 to 10 µM (≈ 0.335 to 3.35 µg/mL) | ≤ 1 µM | ≤ 1 µM | 1 to 10 µM (≈ 0.335 to 3.35 µg/mL) | > 100 µM
9 | Cc1cc(-c2[nH]c(N)nc2-c2ccc3c(c2)N(C2CC2)CCO3)ccn1 [Example 65, 4-(4-Cyclopropyl-3,4-dihydro-2H-benzo[b][1,4]oxazin-6-yl)-5-(2-methylpyridin-4-yl)-1H-imidazol-2-amine] | ≤ 1 µM | ≤ 1 µM | > 100 µM | > 100 µM | > 100 µM | ≤ 1 µM | 1 to 10 µM (≈ 0.347 to 3.47 µg/mL) | ≤ 1 µM | 1 to 10 µM (≈ 0.347 to 3.47 µg/mL) | 1 to 10 µM (≈ 0.347 to 3.47 µg/mL) | 1 to 10 µM (≈ 0.347 to 3.47 µg/mL) | ≤ 1 µM | ≤ 1 µM | ≤ 1 µM | 1 to 10 µM (≈ 0.347 to 3.47 µg/mL) | > 100 µM
